# In patent publication US20040192869A1, “Polyvalent imprinted polymer and process of preparation thereof” (priority 2003, published 2004):
# Molecular target: lysozyme (Gallus gallus, UniProt P00698)
# Assay: Relative inhibition of lysozyme (I50), UV spectrophotometric method with Micrococcus lysodeikticus as substrate
# Assay type: biochemical
# Details: copolymers prepared in absence of lysozyme, and NAG
# Description: This example describes estimation of inhibition concentration (I50) for lysozyme imprinted polyvalent copolymers and polyvalent copolymers prepared in the absence of lysozymne by UV spectrophotometric method. Micrococcus lysodeikticus is a substrate for the enzyme lysozyme. Relative binding of copolYmers was estimated by using a procedure reported by Neuberger and Wilson (1967). 1.5% w/v stock solutions of non imprinted copolymer was prepared in 0.0066 M phosphate buffer pH 6.2 containing 0.0154 M sodium chloride and 0.008 M sodium azide. One milliliter of stock solution containing different copolymer concentration was mixed with 1.6 ml of 78 μg/ml of Micrococcus lysodeikticus in a 3-ml capacity glass cuvette. The mixture was incubated for 5 minutes at 20° C. To this mixture 0.1 ml of lysozyme (27 μg/ml) was added and mixed thoroughly. The relative absorbance at 450 nm (Δ450) was recorded for 30 seconds. A blank reading without the copolymer was noted and the change in the absorbance per second was calculated. Then relative inhibition was calculated.
# Chain of lysozyme (P00698 19-147): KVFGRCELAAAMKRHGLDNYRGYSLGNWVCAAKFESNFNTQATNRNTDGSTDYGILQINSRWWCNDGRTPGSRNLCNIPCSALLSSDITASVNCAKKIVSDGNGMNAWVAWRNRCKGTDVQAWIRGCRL
structure (smiles),measurement,setting,value
"CC(=O)N[C@H]1C(O)O[C@H](CO)[C@@H](O)[C@@H]1O (stereo partly drawn) [NAG, N-Acetyl Glucosamine]",I max,concentration at maximum inhibition,92000 nM
same,I max,,55.29
same,IC50,read-out: Relative Inhibition Iso (I50),74 µM
